{"source": "the Deep4Chem optical property database", "test": "solvent given as SMILES", "note": "Where “and” joins values, the source holds several entries; their conditions need not be identical. Equal values may be shown once.", "data": [{"smiles": "CC[n+]1c(-c2ccccc2)c2cc(N)ccc2c2ccc(-n3cccc3)cc21", "values": [{"measurement": "absorption maximum", "setting": "in O", "value": 454, "unit": "nm"}]}, {"smiles": "CCCCCCCCOc1cc(/C=C/c2cc(OCCCCCCCC)c(/C=C/c3cc(OCCCCCCCC)c(Br)cc3OCCCCCCCC)cc2OCCCCCCCC)c(OCCCCCCCC)cc1Br", "values": [{"measurement": "absorption maximum", "setting": "in ClCCl", "value": 410, "unit": "nm"}]}, {"smiles": "CN(C)c1ccc(C2=Nc3scc(-c4ccccc4)[n+]3[B-](F)(F)O2)cc1", "values": [{"measurement": "absorption maximum", "setting": "in C1CCOC1", "value": 406, "unit": "nm"}, {"measurement": "absorption maximum", "setting": "in CC#N", "value": 406, "unit": "nm"}, {"measurement": "absorption maximum", "setting": "in Cc1ccccc1", "value": 409, "unit": "nm"}, {"measurement": "absorption maximum", "setting": "in ClCCl", "value": 411, "unit": "nm"}]}, {"smiles": "c1ccc2cc3c(cc2c1)oc1c2oc4cc5ccccc5cc4c2c2ccccc2c31", "values": [{"measurement": "absorption maximum", "setting": "in C1CCOC1", "value": 395, "unit": "nm"}]}, {"smiles": "COc1ccc(C2=[N+]3C(=Nc4c5c6ccccc6c6ccc(C(C)(C)C)cc6c5c(-c5ccc(OC)cc5)n4[B-]3(F)F)c3c2c2cc(C(C)(C)C)ccc2c2ccccc32)cc1", "values": [{"measurement": "absorption maximum", "setting": "in Cc1ccccc1", "value": 716, "unit": "nm"}]}, {"smiles": "COc1ccc(C2=[N+]3C(=Nc4c(-c5cc(OC)c(OC)c(OC)c5)c(Br)c(-c5ccc(OC)cc5)n4[B-]3(F)F)C(c3cc(OC)c(OC)c(OC)c3)=C2Br)cc1", "values": [{"measurement": "absorption maximum", "setting": "in Cc1ccccc1", "value": 689, "unit": "nm"}]}, {"smiles": "COc1ccc2cc3c(C)cc(=O)oc3cc2c1", "values": [{"measurement": "absorption maximum", "setting": "in CC#N", "value": 340, "unit": "nm"}, {"measurement": "absorption maximum", "setting": "in CCCCCC", "value": 337, "unit": "nm"}, {"measurement": "absorption maximum", "setting": "in CCO", "value": 343, "unit": "nm"}, {"measurement": "absorption maximum", "setting": "in CCOC(C)=O", "value": 340, "unit": "nm"}, {"measurement": "absorption maximum", "setting": "in CO", "value": 343, "unit": "nm"}, {"measurement": "absorption maximum", "setting": "in OCC(F)(F)F", "value": 344, "unit": "nm"}]}, {"smiles": "COc1ccc2nc(N)sc2c1", "values": [{"measurement": "absorption maximum", "setting": "in CC#N", "value": 305, "unit": "nm"}, {"measurement": "absorption maximum", "setting": "in ClCCl", "value": 305, "unit": "nm"}]}, {"smiles": "CC(C)(C)c1ccc2c(c1)sc1[n+]2[B-](F)(F)n2c(c3cccc4c(Br)ccc2c43)=N1", "values": [{"measurement": "absorption maximum", "setting": "in C1CCOC1", "value": 494, "unit": "nm"}, {"measurement": "absorption maximum", "setting": "in CC#N", "value": 488, "unit": "nm"}, {"measurement": "absorption maximum", "setting": "in CCCCCC", "value": 490, "unit": "nm"}, {"measurement": "absorption maximum", "setting": "in Cc1ccccc1", "value": 498, "unit": "nm"}, {"measurement": "absorption maximum", "setting": "in ClCCl", "value": 463, "unit": "nm"}]}, {"smiles": "COc1cc(C2=c3c(c4ccc(C(C)(C)C)cc4c4cc(C(C)(C)C)ccc34)=[N+]3C2=Nc2c(-c4cc(OC)c(OC)c(OC)c4)c4c5ccc(C(C)(C)C)cc5c5cc(C(C)(C)C)ccc5c4n2[B-]3(F)F)cc(OC)c1OC", "values": [{"measurement": "absorption maximum", "setting": "in Cc1ccccc1", "value": 787, "unit": "nm"}]}, {"smiles": "CN(C)c1ccc2c(c1)[Si](C)(C)C1=CC(=[N+](C)C)C=CC1=C2", "values": [{"measurement": "absorption maximum", "setting": "in CO", "value": 636, "unit": "nm"}, {"measurement": "absorption maximum", "setting": "in O", "value": 634, "unit": "nm"}]}, {"smiles": "O=C(c1ccc2c3c(sc2c1)-c1ccccc1P3(=O)c1ccccc1)c1c(F)c(F)c(F)c(F)c1F", "note": "(stereo not drawn)", "values": [{"measurement": "absorption maximum", "setting": "in ClCCl", "value": "368 nm and 381 nm"}]}, {"smiles": "BrC1=CN2C[n+]3cc(Br)c4ccccc4c3N=C2c2ccccc21", "values": [{"measurement": "absorption maximum", "setting": "in CO", "value": 457, "unit": "nm"}]}, {"smiles": "CC(=O)OC[C@H]1O[C@@H](OCC#Cc2ccc(C3=C4C(C)=CC(/C=C/c5ccc(N(C)C)cc5)=[N+]4[B-](F)(F)n4c(/C=C/c5ccc(N(C)C)cc5)cc(C)c43)cc2)[C@H](OC(C)=O)C(OC(C)=O)[C@@H]1OC(C)=O", "note": "(stereo partly drawn)", "values": [{"measurement": "absorption maximum", "setting": "in CC#N", "value": 701, "unit": "nm"}]}, {"smiles": "Cc1cc(C)c2c(c1)nc1c(=O)n(C)c(=O)nc-1n2C", "values": [{"measurement": "absorption maximum", "setting": "in CC#N", "value": 448, "unit": "nm"}]}, {"smiles": "CCC12C(=C3C(=C4c5ccc(-c6ccc(C(C)=O)cc6)cc5S(=O)(=O)C41CC)C(F)(F)C(F)(F)C3(F)F)c1ccc(-c3ccc(C(C)=O)cc3)cc1S2(=O)=O", "note": "(stereo not drawn)", "values": [{"measurement": "absorption maximum", "setting": "in C1COCCO1", "value": 456, "unit": "nm"}]}, {"smiles": "CC(C)(C)c1ccc2c(c1)Sc1cc(C(C)(C)C)ccc1N2c1ccc2c(ccc3nc4ccc5cc(N6c7ccc(C(C)(C)C)cc7Sc7cc(C(C)(C)C)ccc76)ccc5c4nc32)c1", "values": [{"measurement": "absorption maximum", "setting": "in C1CCCCC1", "value": 451, "unit": "nm"}, {"measurement": "absorption maximum", "setting": "in C1CCOC1", "value": 452, "unit": "nm"}, {"measurement": "absorption maximum", "setting": "in Cc1ccccc1", "value": 451, "unit": "nm"}]}, {"smiles": "Fc1ccc2c(c1)sc1nc(-c3ccccc3)sc12", "values": [{"measurement": "absorption maximum", "setting": "in CS(C)=O", "value": 330, "unit": "nm"}]}, {"smiles": "COc1cc(N2CCOCCOCCN(c3cc(OC)c(NC(=O)c4ccc(-c5c6cc(Cl)c(=O)cc-6oc6cc([O-])c(Cl)cc56)c(C(=O)[O-])c4)cc3OC)CCOCC2)c(OC)cc1NC(=O)c1ccc(-c2c3cc(Cl)c(=O)cc-3oc3cc([O-])c(Cl)cc23)c(C(=O)[O-])c1", "values": [{"measurement": "absorption maximum", "setting": "in O", "value": 507, "unit": "nm"}]}, {"smiles": "CC[N+]1(CC)CN2C(=N1)C(C(=O)O)=Cc1ccccc12", "values": [{"measurement": "absorption maximum", "setting": "in CN(C)C=O", "value": 361, "unit": "nm"}, {"measurement": "absorption maximum", "setting": "in O", "value": 373, "unit": "nm"}]}, {"smiles": "Fc1ccc(C2=[N+]3C(=Nc4c5ccccc5c(-c5ccc(F)cc5)n4[B-]3(F)F)c3ccccc32)cc1", "values": [{"measurement": "absorption maximum", "setting": "in ClCCl", "value": 713, "unit": "nm"}]}, {"smiles": "c1ccc(Cn2c3sccc3c3c4nsnc4c4c5ccsc5n(Cc5ccccc5)c4c32)cc1", "values": [{"measurement": "absorption maximum", "setting": "in Cc1ccccc1", "value": 424, "unit": "nm"}, {"measurement": "absorption maximum", "setting": "in ClCCl", "value": 424, "unit": "nm"}]}, {"smiles": "CCOC(=O)CSc1nc2c(c(C#N)c1C#N)CCCCCC2", "values": [{"measurement": "absorption maximum", "setting": "in c1ccccc1", "value": 360, "unit": "nm"}]}, {"smiles": "c1cc2c3c(cccc3c1)-c1c-2c2c3ccccc3c3ccc4c5c6c(c7c8ccccc8c8ccc9c%10c%11c(c%12c%13ccccc%13c%13ccc%14c1c1c2c3c4c2c1c1c%14c%13c%12c%10c1c1c9c8c7c5c21)-c1cccc2cccc-%11c12)-c1cccc2cccc-6c12", "values": [{"measurement": "absorption maximum", "setting": "in C1CCOC1", "value": 475, "unit": "nm"}]}, {"smiles": "Oc1cc(-c2cccs2)ccc1-c1nc2ccccc2s1", "values": [{"measurement": "absorption maximum", "setting": "in ClCCl", "value": 364, "unit": "nm"}]}, {"smiles": "O=C(O)CCCc1cc(C#Cc2ccccc2)c2ccc3c(C#Cc4ccccc4)cc(C#Cc4ccccc4)c4ccc1c2c34", "values": [{"measurement": "absorption maximum", "setting": "in CS(C)=O", "value": 451, "unit": "nm"}, {"measurement": "absorption maximum", "setting": "in ClC(Cl)(Cl)Cl", "value": 445, "unit": "nm"}]}, {"smiles": "COC(=O)C(NC(=O)OC(C)(C)C)c1ccc2oc(-c3ccc(C#N)cc3)nc2c1", "note": "(stereo not drawn)", "values": [{"measurement": "absorption maximum", "setting": "in CC1CCCCC1", "value": 337, "unit": "nm"}, {"measurement": "absorption maximum", "setting": "in CC#N", "value": 333, "unit": "nm"}, {"measurement": "absorption maximum", "setting": "in CO", "value": 317, "unit": "nm"}]}, {"smiles": "COc1ccc(-n2nc(C#N)c(N3CCCCCC3)n2)cc1", "values": [{"measurement": "absorption maximum", "setting": "in CC#N", "value": 344, "unit": "nm"}]}, {"smiles": "CN(C)c1ccc(C2=Nc3sc4c(F)c(F)c(F)c(F)c4[n+]3[B-](F)(F)O2)cc1", "values": [{"measurement": "absorption maximum", "setting": "in C1CCOC1", "value": 434, "unit": "nm"}, {"measurement": "absorption maximum", "setting": "in CC#N", "value": 431, "unit": "nm"}, {"measurement": "absorption maximum", "setting": "in Cc1ccccc1", "value": 431, "unit": "nm"}, {"measurement": "absorption maximum", "setting": "in ClCCl", "value": 433, "unit": "nm"}]}]}
